{
  "source": "patent US10925881B2",
  "about": "“Treatment of conditions associated with hyperinsulinaemia” (Tensha Therapeutics, Inc., priority 2014, dated 2021)",
  "key": {"[1]": {"molecular_target": "BRD4(1) (Homo sapiens (Human), UniProt O60885)", "assay": "Alpha-assay binding, BRD4 site 1", "conditions": "for binding activity with the BRD4 site 1: result in words", "protocol": "The binding activity of lead compounds with the BRD4 site 1 was determined by Alpha-assay with a 12-point dose response curve."}, "[2]": {"molecular_target": "BRD4(2) (Homo sapiens (Human), UniProt O60885)", "assay": "Alpha-assay binding, BRD4 site 2", "conditions": "for binding activity with the BRD4 site 2: result in words"}, "[3]": {"tested_on": "four rat insulinoma (RIN) cell lines, RIN-14B, RIN-m5F, RIN-m, and RIN-5", "assay": "Cell Titer-Glo rat insulinoma cell assay, statement for all four cell lines", "type": "cell-based", "conditions": "for cell viability at higher concentrations: cytotoxic effect; for IC50: read-out: IC50 values, all cell lines", "protocol": "(§1) Paclitaxel was used as a positive control.\n(§2) The plate was shaken for 2 minutes and allowed to equilibrate for 10 minutes. Luminescence was measured on a Tecan GENios microplate reader. Percent inhibition of cell viability was calculated relative to untreated control wells. All tests were performed in triplicate or quadruplicates at each concentration level. IC50 values were calculated using Prism 6.00 curve-fitting with a four parameter-logistic equation.\nas §2"}, "[4]": {"tested_on": "RIN-5F", "assay": "Cell Titer-Glo rat insulinoma cell assay, RIN-5F", "type": "cell-based", "conditions": "cell viability after 168-192 total hours of culture", "protocol": "as §1\n(§3) Cells were seeded at 5000 cells per well in a 96-well microculture plate in a total volume of 100 μl/well and incubated for 24 hours. […] The concentrations tested for paclitaxel were, 10 μM, 2.5 μM, 0.625 μM, 0.156 μM, 0.0391 μM, 0.00977 μM, 0.00244 μM, 0.000610 μM, 0.000153 μM, and 0.0000381 μM. Duplicate data for RIN-5F was obtained where the test concentrations for paclitaxel were, 1 μM, 0.25 μM, 0.0625 μM, 0.0156 μM, 0.00391 μM, 0.000977 μM, 0.000244 μM, 0.0000610 μM, 0.0000153 μM, and 0.00000381 μM. After 168-192 total hours of culture 100 μl of media was removed from each well and 50 μl of Cell Titer-Glo (Promega #G7571) was added to each well. The plate was shaken for 2 minutes and allowed to equilibrate for 10 minutes. Luminescence was measured on a Tecan GENios microplate reader. Percent inhibition of cell viability was calculated relative to untreated control wells. All tests were performed in triplicate or quadruplicates at each concentration level. IC50 values were calculated using Prism 6.00 curve-fitting with a four parameter-logistic equation.\n(§4) Cells were seeded at 5000 cells per well in a 96-well microculture plate in a total volume of 100 μl/well and incubated for 24 hours. […] After 168-192 total hours of culture 100 μl of media was removed from each well and 50 μl of Cell Titer-Glo (Promega #G7571) was added to each well. The plate was shaken for 2 minutes and allowed to equilibrate for 10 minutes. Luminescence was measured on a Tecan GENios microplate reader. Percent inhibition of cell viability was calculated relative to untreated control wells. All tests were performed in triplicate or quadruplicates at each concentration level. IC50 values were calculated using Prism 6.00 curve-fitting with a four parameter-logistic equation."}, "[5]": {"tested_on": "RIN-m", "assay": "Cell Titer-Glo rat insulinoma cell assay, RIN-m", "type": "cell-based", "protocol": "as §1, §3, §4"}, "[6]": {"tested_on": "RIN-m5F", "assay": "Cell Titer-Glo rat insulinoma cell assay, RIN-m5F", "type": "cell-based", "protocol": "as §1, §3, §4"}, "[7]": {"tested_on": "RIN-14B", "assay": "Cell Titer-Glo rat insulinoma cell assay, RIN-14B", "type": "cell-based", "protocol": "as §1, §3, §4"}, "[8]": {"assay": "at least one biological assay (not specified)"}, "[9]": {"tested_on": "RIN-m5F rat insulinoma cells", "assay": "RNA-Seq expression analysis of JQ1 treated RIN-m5F insulinoma cells", "type": "cell-based", "conditions": "500 nM, 24 hr; result in words", "protocol": "As shown below, BET inhibition disrupts both oncogenic and pancreatic islet cell transcriptional profiles.\nCells were scraped and total RNA was extracted and purified using a Qiagen RNeasy Mini Kit (cat. 74104) as described in the manufacturer's protocol. […] For each sample, 4 μg of total RNA was then used in Illumina's TruSeq RNA sample preparation V2 kit. […] Libraries were sequenced on Illumina NextSeq 500 as paired-end 75-nt reads.\nSequence reads were analyzed with the TopHat—Cufflinks software pipeline. Average size of library molecules was 400 bp, therefore the—r parameter was set to […]. (Versions were: TopHat v2.0.9, Bowtie 2.1.0.0, Cufflinks v2.1.1). The rat (rn5) gene reference GTF file was obtained from Illumina iGenomes."}},
  "note": "Like-named read-outs stand apart in the source and are kept apart here.",
  "data": [
    {"smiles": "Cc1sc2c(c1C)C(c1ccc(Cl)cc1)=N[C@@H](CC(=O)NCCN1CCOCC1)c1nnc(C)n1-2", "note": "(stereo in doubt) [(S)-JQ33]", "values": [
      {"measurement": "IC50", "setting": "[1]; 12-point dose response curve, read-out: Bio-assay IC50 BRD4(1)", "value": 85, "unit": "nM"},
      {"measurement": "binding activity with the BRD4 site 1", "setting": "[1]", "value": "excellent binding activity"},
      {"measurement": "IC50", "setting": "[2]; 12-point dose response curve, read-out: Bio-assay IC50 BRD4(2)", "value": 29.5, "unit": "nM"},
      {"measurement": "binding activity with the BRD4 site 2", "setting": "[2]", "value": "excellent binding activity"}
    ]},
    {"smiles": "Cc1sc2c(c1C)C(c1ccc(Cl)cc1)=N[C@@H](CC(=O)NCCCN1CCN(C)CC1)c1nnc(C)n1-2", "note": "(stereo in doubt) [(S)-JQ35]", "values": [
      {"measurement": "binding activity with the BRD4 site 1", "setting": "[1]", "value": "excellent binding activity"},
      {"measurement": "cell viability at higher concentrations", "setting": "[3]; Example 8", "value": "~0", "unit": "%"},
      {"measurement": "IC50", "setting": "[3]; Rattus norvegicus, RIN-m5F, Example 8", "value": "< 200", "unit": "nM"},
      {"measurement": "IC50", "setting": "[4]; Example 8 additional data, two values, read-out: IC50 Values, RIN-5F", "value": 215, "unit": "nM"},
      {"measurement": "IC50", "setting": "[4]; Rattus norvegicus, Example 8 additional data, two values, read-out: IC50 Values, RIN-5F", "value": 183, "unit": "nM"},
      {"measurement": "IC50", "setting": "[5]; Example 8 additional data, cell viability after 168-192 total hours of culture, read-out: IC50 Values, RIN-m", "value": 151, "unit": "nM"},
      {"measurement": "binding activity with the BRD4 site 2", "setting": "[2]", "value": "excellent binding activity"},
      {"measurement": "IC50", "setting": "[6]; Example 8 additional data, cell viability after 168-192 total hours of culture, read-out: IC50 Values, RIN-m5F", "value": 188, "unit": "nM"},
      {"measurement": "IC50", "setting": "[7]; Example 8 additional data, cell viability after 168-192 total hours of culture, read-out: IC50 Values, RIN-14B", "value": 207, "unit": "nM"}
    ]},
    {"smiles": "Cc1sc2c(c1C)C(c1ccc(Cl)cc1)=N[C@@H](CC(=O)OC(C)(C)C)c1nnc(C)n1-2", "note": "[(S)-JQ1, (S)-tert-Butyl 2-(4-(4-chlorophenyl)-2,3,9-trimethyl-6H-thieno[3,2-f][1,2,4]triazolo [4,3-a][1,4]diazepin-6-yl)acetate]", "values": [
      {"measurement": "cell viability at higher concentrations", "setting": "[3]; Example 3", "value": "~0", "unit": "%"},
      {"measurement": "cell viability at higher concentrations", "setting": "[3]; Example 8", "value": "~0", "unit": "%"},
      {"measurement": "IC50", "setting": "[3]; Rattus norvegicus, RIN-m5F", "value": "< 100", "unit": "nM"},
      {"measurement": "IC50", "setting": "[3]; Example 8", "value": "< 100", "unit": "nM"},
      {"measurement": "IC50", "setting": "[4]; Rattus norvegicus, read-out: IC50 Values, RIN-5F, Example 3, Table 1, duplicate data", "value": 96, "unit": "nM"},
      {"measurement": "IC50", "setting": "[4]; Rattus norvegicus, read-out: IC50 Values, RIN-5F, Example 8 additional data, two values", "value": 52, "unit": "nM"},
      {"measurement": "IC50", "setting": "[4]; read-out: IC50 Values, RIN-5F, Example 3, Table 1, duplicate data", "value": 61, "unit": "nM"},
      {"measurement": "IC50", "setting": "[4]; read-out: IC50 Values, RIN-5F, Example 8 additional data, two values", "value": 73.1, "unit": "nM"},
      {"measurement": "IC50", "setting": "[5]; read-out: IC50 Values, RIN-m, Example 3, Table 1, cell viability after 168-192 total hours of culture", "value": 34, "unit": "nM"},
      {"measurement": "IC50", "setting": "[5]; read-out: IC50 Values, RIN-m, Example 8 additional data, cell viability after 168-192 total hours of culture", "value": 29.3, "unit": "nM"},
      {"measurement": "IC50", "setting": "[6]; read-out: IC50 Values, RIN-m5F, Example 3, Table 1, cell viability after 168-192 total hours of culture", "value": 31, "unit": "nM"},
      {"measurement": "IC50", "setting": "[6]; read-out: IC50 Values, RIN-m5F, Example 8 additional data, cell viability after 168-192 total hours of culture", "value": 51, "unit": "nM"},
      {"measurement": "IC50", "setting": "[7]; read-out: IC50 Values, RIN-14B, Example 3, Table 1, cell viability after 168-192 total hours of culture", "value": 17, "unit": "nM"},
      {"measurement": "IC50", "setting": "[7]; read-out: IC50 Values, RIN-14B, Example 8 additional data, cell viability after 168-192 total hours of culture", "value": 20.7, "unit": "nM"}
    ]},
    {"smiles": "Cc1sc2c(c1C)C(c1ccc(Cl)cc1)=N[C@@H](CC(=O)N/N=C/c1ncc[nH]1)c1nnc(C)n1-2", "note": "[(S)-JQ6]", "values": [
      {"measurement": "binding activity with the BRD4 site 1", "setting": "[1]", "value": "excellent binding activity"},
      {"measurement": "binding activity with the BRD4 site 2", "setting": "[2]", "value": "excellent binding activity"}
    ]},
    {"smiles": "Cc1sc2c(c1C)C(c1ccc(Cl)cc1)=N[C@@H](CC(=O)NCCc1cnc[nH]1)c1nnc(C)n1-2", "note": "[(S)-JQ8]", "values": [
      {"measurement": "binding activity with the BRD4 site 1", "setting": "[1]", "value": "excellent binding activity"},
      {"measurement": "binding activity with the BRD4 site 2", "setting": "[2]", "value": "excellent binding activity"}
    ]},
    {"smiles": "Cc1sc2c(c1C)C(c1ccc(Cl)cc1)=N[C@@H](CC(=O)NCCN1CCN(C)CC1)c1nnc(C)n1-2", "note": "[(S)-JQ13]", "values": [
      {"measurement": "binding activity with the BRD4 site 1", "setting": "[1]", "value": "excellent binding activity"},
      {"measurement": "binding activity with the BRD4 site 2", "setting": "[2]", "value": "excellent binding activity"}
    ]},
    {"smiles": "Cc1sc2c(c1C)C(c1ccc(Cl)cc1)=NC(CC(=O)NN)c1nnc(C)n1-2", "note": "(stereo not shown) [Compound 3]", "values": [
      {"measurement": "activity in at least one biological assay", "setting": "[8]", "value": "showed activity"}
    ]},
    {"smiles": "Cc1sc2c(c1C)C(c1ccc(Cl)cc1)=NC(CC(=O)OC(C)(C)C)c1nnc(C)n1-2", "note": "(stereo not shown) [JQ1, tert-Butyl 2-(4-(4-chlorophenyl)-2,3,9-trimethyl-6H-thieno[3,2-f][1,2,4]triazolo[4,3-a][1,4]diazepin-6-yl)acetate]", "values": [
      {"measurement": "genes with decreased versus increased expression", "setting": "[9]", "value": "larger number of genes with decreased expression as compared to increased expression"}
    ]},
    {"smiles": "CC(=O)O[C@H]1C(=O)[C@@]2(C)[C@H]([C@H](OC(=O)c3ccccc3)[C@]3(O)C[C@H](OC(=O)[C@H](O)[C@@H](NC(=O)c4ccccc4)c4ccccc4)C(C)=C1C3(C)C)[C@]1(OC(C)=O)CO[C@@H]1C[C@@H]2O", "note": "[Paclitaxel, reference compound]", "values": [
      {"measurement": "IC50", "setting": "[4]; Example 3, Table 1, duplicate data, read-out: IC50 Values, RIN-5F", "value": 3.14, "unit": "nM"},
      {"measurement": "IC50", "setting": "[4]; Rattus norvegicus, Example 3, Table 1, duplicate data, read-out: IC50 Values, RIN-5F", "value": 1.63, "unit": "nM"},
      {"measurement": "IC50", "setting": "[5]; Example 3, Table 1, cell viability after 168-192 total hours of culture, read-out: IC50 Values, RIN-m", "value": 0.718, "unit": "nM"},
      {"measurement": "IC50", "setting": "[6]; Example 3, Table 1, cell viability after 168-192 total hours of culture, read-out: IC50 Values, RIN-m5F", "value": 0.43, "unit": "nM"},
      {"measurement": "IC50", "setting": "[7]; Example 3, Table 1, cell viability after 168-192 total hours of culture, read-out: IC50 Values, RIN-14B", "value": 1.33, "unit": "nM"}
    ]}
  ]
}
